Assay results: ChEMBL document CHEMBL5352455, “Discovery of novel N-acylpyrazoles as potent and selective thrombin inhibitors” (Eur J Med Chem, 2023)

How the values were obtained:
in vitro [1] = settings: CD-1, mouse, plasma
Description: Stability in CD-1 mouse plasma assessed as half life

in vitro [2] = settings: Sprague-Dawley, rat, plasma
Description: Stability in Sprague-Dawley rat plasma assessed as half life

in vitro [3] = settings: human, plasma
Description: Stability in human plasma assessed as half life

[4] = Half life in CD-1 mouse at 0.5 mg/kg, iv measured after 24 hrs by LC-MS analysis; assay type: ADME, organism-based; settings: in vivo
[5] = AUC in CD-1 mouse at 0.5 mg/kg, iv measured after 24 hrs by LC-MS analysis; assay type: ADME, organism-based; design: time 24 hrs, dose 0.5 mg/kg, route iv; settings: in vivo
[6] = AUC in CD-1 mouse at 5 mg/kg, po measured after 24 hrs by LC-MS analysis; assay type: ADME, organism-based; design: dose 5 mg/kg, time 24 hrs, route po; settings: in vivo
[7] = Cmax in CD-1 mouse at 5 mg/kg, po measured after 24 hrs by LC-MS analysis; assay type: ADME, organism-based; design: time 24 hrs, dose 5 mg/kg, route po; settings: in vivo
[8] = Tmax in CD-1 mouse at 5 mg/kg, po measured after 24 hrs by LC-MS analysis; assay type: ADME, organism-based; settings: in vivo
[9] = Half life in CD-1 mouse at 5 mg/kg, po measured after 24 hrs by LC-MS analysis; assay type: ADME, organism-based; settings: in vivo
[10] = Oral bioavailability in CD-1 mouse at 5 mg/kg measured after 24 hrs by LC-MS analysis; assay type: ADME, organism-based; settings: in vivo

Row | half-life (in vitro [1]) [min] | half-life (in vitro [3]) [min] | Compound | also measured
1 | > 120 | > 120 | C[C@@H]1CNc2c(cccc2S(=O)(=O)N[C@@H](CCCNC(=N)N)C(=O)N2CC[C@@H](C)C[C@@H]2C(=O)O)C1 | half-life (in vitro [2]): > 120 min
2 | 910 | – | CC(C)(C)C(=O)n1nc(C2CCCNC2)cc1NCc1ccc(Cl)s1 (stereo unspecified) | –
3 | – | 69 | O=C(c1ccsc1)n1nc(-c2ccccc2F)nc1NCc1cccs1 | –
4 | 4.1 | 30 | COc1ccccc1C(=O)n1nc(-c2ccccn2)nc1NCc1ccc(Cl)s1 | half-life (in vitro [2]): 1.5 min
5 | 350 | – | CC(C)(C)C(=O)n1nc(-c2ccc[nH]c2=O)cc1NCc1ccc(Cl)s1 | half-life [4]: 42 min; AUC at 24 h [5]: 300 ng·h/mL; AUC at 24 h [6]: 713 ng·h/mL; Cmax [7]: 127 ng/mL; Tmax [8]: 42 min; half-life [9]: 354 min; bioavailability [10]: 22.8%
6 | – | 48 | COc1ccccc1C(=O)n1nc(-c2ccccc2F)nc1NCc1cccs1 | –
7 | – | 51 | CC(C)(C)C(=O)n1nc(-c2cccnn2)cc1NCc1ccc(Cl)s1 | –
8 | 160 | – | COc1ccccc1C(=O)n1nc(C2CCOCC2)cc1NCc1ccc(Cl)s1 | –
9 | 43 | – | COc1ccccc1C(=O)n1nc(C2CCNCC2)cc1NCc1ccc(Cl)s1 | –

Row | Compound | half-life (in vitro [1]) [min] | half-life (in vitro [3]) [min] | also measured
10 | CC(C)(CO)C(=O)n1nc(C2CCNCC2)c(F)c1NCc1ccc(Cl)s1 | 44 | – | –
